Laboratory results: US11066447B2, “Aureobasidium derivatives and methods of synthesis” (AureoGen Biosciences, Inc., priority 2016, dated 2021)
≈ marks a conversion by molar mass, not a printed value. Where two headings read alike, the source gives them in different places. Numbered stars: 1 amine (or outer) side, 2 acyl side, 3 side chain; on linkers, the order of the positions; unused ones are H or OH. Square brackets hold non-standard residues; d marks the D form. Peptide text beside a SMILES is read from it. X1 = CC(C)N1CCN(c2ccc(-c3cccc(C[C@@H](C(=O)[*:2])N(C)[*:1])c3)cc2)CC1; Hmp(2R,3S) = CC[C@H](C)[C@@H](O)C(=O)O; NMeVal(β-OH) = CN[C@H](C(=O)O)C(C)(C)O; NMeV = CN[C@H](C(=O)O)C(C)C

Tests used:
[1] = system: C. parapsilosis MMX 2323 ATCC 22019; conditions: Without Tween-80; quality control range; cited from earlier work
[2] = system: C. albicans MMX 2000 ATCC 10231; assay: MIC assay (CLSI microdilution); type: cell-based; conditions: Candida albicans, ATCC10231, RPMI plus 0.002% Tween-80; read-out: MIC
[3] = system: C. neoformans MMX 0634 ATCC 90112; assay: MIC assay (CLSI microdilution); type: cell-based
[4] = system: A. fumigatus MMX 5280 ATCC MYA-3626; conditions: Without Tween-80, quality control range, cited from earlier work
[5] = system: A. fumigatus MMX 5280 ATCC MYA-3626; assay: MIC/MEC assay (CLSI microdilution); type: cell-based, Aspergillus fumigatus
In short: (§1)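 CLSI microdilution; RPMI-1640 + 0.002% Tween-80 (MMX 5280 additionally without Tween). Two-fold dilution series, compounds from EtOH stocks, amphotericin B from DMSO, tested 0.06-64 μg/mL. Inoculum ~0.2-2.5×10^4 CFU/mL final.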

[6] = system: C. albicans MMX 2000 ATCC 10231; assay: MIC assay (CLSI microdilution); type: cell-based; conditions: Candida albicans, ATCC10231, Without Tween-80; read-out: MIC
[7] = system: C. parapsilosis MMX 2323 ATCC 22019; assay: MIC assay (CLSI microdilution); type: cell-based, Candida parapsilosis; conditions: read-out: MIC
In short: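 Broth microdilution MIC testing of Candida parapsilosis ATCC 22019 followed CLSI methods in RPMI-1640, with or without 0.002% Tween-80. Yeast grown 48 hours at 35° C on Sabouraud dextrose agar was suspended to a 0.5 McFarland standard and diluted 1:100 to roughly 0.5-2.5×10^3 CFU/mL. The MIC was the lowest concentration preventing visible growth.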

[8] = system: A. fumigatus from Aureogen; assay: MIC/MEC assay (CLSI microdilution); type: cell-based
In short: as §1

[9] = system: A. niger MMX 0624 ATCC 16888; assay: MIC/MEC assay (CLSI microdilution); type: cell-based
In short: as §1

A. fumigatus MMX 5944 = assay: MIC/MEC assay (CLSI microdilution); type: cell-based
In short: as §1

[10] = system: A. fumigatus MMX 6781 ATCC MYA-4609; assay: MIC/MEC assay (CLSI microdilution); type: cell-based; conditions: Aspergillus fumigatus
In short: as §1

[11] = system: A. fumigatus MMX 6782 ATCC 13073; assay: MIC/MEC assay (CLSI microdilution); type: cell-based
In short: as §1

A. flavus MMX 5948 = assay: MIC/MEC assay (CLSI microdilution); type: cell-based; conditions: Aspergillus flavus, MMX5948, 48 h, RPMI plus 0.002% Tween-80
In short: as §1

Coccidiodes immitus = assay: organism not typed; type: cell-based
[12] = Cryptococcus neoformans, ATCC90112, 72 h, 72 hour, RPMI plus 0.002% Tween-80, read-out: MIC
[13] = Cryptococcus neoformans, ATCC90112, RPMI plus 0.002% Tween-80, read-out: MIC
[14] = Aspergillus fumigatus, 48 h, RPMI plus 0.002% Tween-80, read-out: MIC
[15] = RPMI plus 0.002% Tween-80, 48 hr

## C[C@@H]1[C@H](O)[C@@H](C)/C=C/C=C/C=C/C=C/C=C/C=C/C=C/[C@H](O[C@@H]2O[C@H](C)[C@@H](O)[C@H](N)[C@@H]2O)C[C@@H]2O[C@](O)(C[C@@H](O)C[C@@H](O)[C@H](O)CC[C@@H](O)C[C@@H](O)CC(=O)O[C@H]1C)C[C@H](O)[C@H]2C(=O)O [Amphotericin B, reference compound]
[1]
  CLSI QC Range (MIC): (0.25-1)^1 μg/mL
[2]
  MIC: ≤ 0.06 µg/mL
[3]; [12]
  MIC: ≤ 0.06 µg/mL
[3]; [13]
  MIC: ≤ 0.06 µg/mL
[4]
  CLSI QC Range (MIC): 0.5 to 4 µg/mL
[4]; listed as Amph. B
  CLSI QC Range (MIC): (0.5-4)^1 μg/mL
[5]; Without Tween-80, 48 hr
  MIC: 0.5 µg/mL (≈ 0.541 µM)
[6]
  MIC: ≤ 0.06 µg/mL

## CC[C@H](C)[C@@H]1NC(=O)[C@@H]2CCCN2C(=O)[C@H](Cc2cccc(-c3ccc(N4CCN(C(C)C)CC4)cc3)c2)N(C)C(=O)[C@H](Cc2ccccc2)NC(=O)[C@H](C(C)C)N(C)C(=O)[C@@H]([C@@H](C)CC)OC(=O)[C@H](C(C)(C)O)N(C)C(=O)[C@H](CC(C)C)NC(=O)[C@H](C(C)C)N(C)C1=O [Compound 25] (cyclo(F[X1]PI[NMeV]L[NMeVal(β-OH)][Hmp(2R,3S)][NMeV]))
[7]; ATCC22019, RPMI plus 0.002% Tween-80
  MIC: 0.03 µg/mL
[7]; ATCC22019, Without Tween-80
  MIC: 1 µg/mL (≈ 0.767 µM)
[8]; Aspergillus fumigatus, 48 h, RPMI plus 0.002% Tween-80
  minimal effective concentration: 0.06 µg/mL
[8]; [14]
  MIC: 0.12 µg/mL
[8]; [15]
  MEC: 0.06 µg/mL
[9]; Aspergillus niger, ATCC16888, 48 h, RPMI plus 0.002% Tween-80, read-out: MEC
  minimal effective concentration: 0.015 µg/mL
[9]; Aspergillus niger, ATCC16888, 48 h, RPMI plus 0.002% Tween-80, read-out: MIC
  MIC: 0.015 µg/mL
[9]; [15]
  MIC: 0.015 µg/mL
A. fumigatus MMX 5944; Aspergillus fumigatus, MMX5944, 48 h, RPMI plus 0.002% Tween-80
  minimal effective concentration: 0.015 µg/mL
A. fumigatus MMX 5944; Aspergillus fumigatus, MMX5944, 48 h, RPMI plus 0.002% Tween-80, read-out: MIC
  MIC: 0.06 µg/mL
A. fumigatus MMX 5944; [15]
  MIC: 0.06 µg/mL
[10]; 48 h, RPMI plus 0.002% Tween-80, read-out: MIC
  MIC: 0.12 µg/mL
[10]; [15]
  minimal effective concentration: 0.03 µg/mL
[11]; Aspergillus fumigatus, ATCC13073, 48 h, RPMI plus 0.002% Tween-80, read-out: MEC
  minimal effective concentration: 0.015 µg/mL
[11]; Aspergillus fumigatus, ATCC13073, 48 h, RPMI plus 0.002% Tween-80, read-out: MIC
  MIC: 0.06 µg/mL
[11]; [15]
  MIC: 0.06 µg/mL
A. flavus MMX 5948
  minimal effective concentration: 0.008 µg/mL
[2]
  MIC: 0.015 µg/mL
[3]; 72 hour, RPMI plus 0.002% Tween-80
  MIC: 0.06 µg/mL
[3]; [12]
  MIC: 0.06 µg/mL
[3]; [13]
  MIC: 0.015 µg/mL
[5]; Aspergillus fumigatus, 48 h, RPMI plus 0.002% Tween-80, read-out: MEC
  minimal effective concentration: 0.03 µg/mL
[5]; [14]
  MIC: 0.12 µg/mL
[5]; Aspergillus fumigatus, 48 h, Without Tween-80, read-out: MEC
  minimal effective concentration: 0.5 µg/mL
[5]; Aspergillus fumigatus, 48 h, Without Tween-80, read-out: MIC
  MIC: 1 µg/mL (≈ 0.767 µM)
[5]; Without Tween-80, 48 hr
  MEC: 1/1 μg/mL
  MIC: 1 µg/mL (≈ 0.767 µM)
[6]
  MIC: 1 µg/mL (≈ 0.767 µM)
Coccidiodes immitus
  MIC: 0.15 µg/mL (≈ 0.115 µM)
